Each structure is given as a SMILES string.

What is called IC50 is the point on the concentration scale where inhibition reaches its midpoint.

In the experiment the target is T1, human MCH-1R (Homo sapiens, UniProt Q99705).
T1 construct: expressed in transfected cells; host or cells: CHO-K1 (American Type Culture Collection), plasmid vector pEF/myc/cyto
T1 sequence (Q99705 whole entry): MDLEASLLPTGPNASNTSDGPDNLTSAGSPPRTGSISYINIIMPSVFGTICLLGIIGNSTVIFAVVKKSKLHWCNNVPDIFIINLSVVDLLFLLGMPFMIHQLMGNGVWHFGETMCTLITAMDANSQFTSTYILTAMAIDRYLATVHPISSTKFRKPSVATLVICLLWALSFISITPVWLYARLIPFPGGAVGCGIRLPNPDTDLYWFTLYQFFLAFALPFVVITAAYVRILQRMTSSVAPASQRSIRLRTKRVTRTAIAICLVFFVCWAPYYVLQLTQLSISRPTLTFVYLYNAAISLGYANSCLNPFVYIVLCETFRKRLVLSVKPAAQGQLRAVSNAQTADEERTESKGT
Kind of experiment: MCH binding inhibition test. The conditions noted are these: inhibition of specific [125I]MCH (50 pM) binding; membrane specimen from MCH-1R-expressing CHO-K1 cells; 25° C., 1 hour. The text has this:
A cDNA sequence encoding human MCH-1R [FEBS Letters, Vol. 398, 253 (1996); Biochimica et Biophisica Acta, Vol. 1401, 216 (1998)] was cloned into a plasmid vector pEF/myc/cyto (manufactured by In Vitro Gene). The expression plasmid thus obtained was transfected into host cells CHO-K1 (American Type Culture Collection) by using lipofectAMINE PLUS reagent (manufactured by Life Technologies) to thereby give MCH-1R-expressing cells.
A membrane specimen prepared from the MCH-1R-expressing cells was incubated together with a test compound and 50 pM of [^125I]MCH (manufactured by NEN) in an assay buffer (a 50 mM Tris buffer (pH7.4) containing 10 mM of magnesium chloride, 2 mM of ethylenediaminetetracetic acid, 0.01% of bacitracin and 0.2% of bovine serum albumin) at 25° C. for 1 hour, and then filtered through a glass filter GF/C (manufactured by Whatman). After washing the glass filter with a 50 mM Tris buffer (pH7.4) containing 10 mM of magnesium chloride, 2 mM of ethylenediaminetetracetic acid and 0.04% of Tween-20, the radioactivity on the glass filter was determined. Nonspecific binding was measured in the presence of 1 μM human MCH and the 50% inhibitory concentration (IC50) of the test compound to the specific binding to [^125I]MCH was determined. Table 1 indicates the results.
`CCO/N=C(\c1ccc(F)c(F)c1)c1ccc(CN2CCC(c3cn(C)c4cnccc34)CC2)cn1` [Example 3-33, (E)-(3,4-Difluorophenyl)(5-{[4-(1-methyl-1H-pyrrolo[2,3-c]pyridin-3-yl)piperidin-1-yl]methyl}pyridin-2-yl)methanone O-ethyloxime] had an IC50 of 0.11 nM.

For the molecule `Fc1ccc(C2CCN(Cc3cnc(/C(=N/OC4CC4)c4ccc(F)c(F)c4)nc3)CC2)cn1` [Example 4-1, (E)-(3,4-difluorophenyl)(5-{[4-(6-fluoropyridin-3-yl)piperidin-1-yl]methyl}pyrimidin-2-yl)methanone-O-cyclopropyloxime], the IC50 came out at 9.7 nM.

`CCO/N=C(\c1ccc(F)c(F)c1)c1ccc(CN2CCC(c3ccn4ccnc4c3)CC2)cn1` [Example 3-26, (E)-(3,4-Difluorophenyl){5-[(4-imidazo[1,2-a]pyridin-7-ylpiperidin-1-yl)methyl]pyridin-2-yl)methanone O-ethyloxime]: the IC50 is 0.27 nM. In turn, `CS(=O)(=O)CO/N=C(\c1ccc(F)c(F)c1)c1ccc(CN2CCC(c3ccc(F)nc3)CC2)cn1` [Example 3-53, (E)-(3,4-Difluorophenyl)(5-{[4-(6-fluoropyridin-3-yl)piperidin-1-yl]methyl}pyridin-2-yl)methanone O-[(methylsulfonyl)methyl]oxime] registered an IC50 of 6.7 nM. The molecule `CC(C)(O)CO/N=C(\c1ccc(F)c(F)c1)c1ccc(CN2CCC(c3cnn4ncccc34)CC2)cn1` [Example 3-51, (E)-(3,4-Difluorophenyl){5-[(4-pyrazolo[1,5-b]pyridazin-3-ylpiperidin-1-yl)methyl]pyridin-2-yl}methanone O-(2-hydroxy-2-methylpropyl)oxime] returned an IC50 of 11.2 nM.

The values are drawn from patent publication US20100324049A1, “DIARYL KETIMINE DERIVATIVE HAVING ANTAGONISM AGAINST MELANIN-CONCENTRATING HORMONE RECEPTOR” (priority 2007, published 2010).
